Reference: PMC10680739 (bioRxiv, 2023)
Read-outs that look alike come from different tables or passages of the source.

Columns and labels:
HgmTad2 [1] = type: binding, Bacteroides phages (human gut metagenomic libraries)
CmTad1 = CmTad1 (Clostridioides mangenotii, UniProt P0DW61); type: binding, Clostridioides mangenotii prophage; details: for binding to CmTad1 in words: among the CDNs tested
ColiTad1 = type: binding, Colidexitribacter sp. OB.20; details: native gel combined with ITC
SBS Tad1 [2] = molecular target: T1, SBS Tad1 (Bacillus phage SBSphiJ7, UniProt P0DW57); type: binding, Bacillus cereus phage SBSphiJ7; details: native gel combined with ITC
T1 sequence (P0DW57 whole entry, looked up): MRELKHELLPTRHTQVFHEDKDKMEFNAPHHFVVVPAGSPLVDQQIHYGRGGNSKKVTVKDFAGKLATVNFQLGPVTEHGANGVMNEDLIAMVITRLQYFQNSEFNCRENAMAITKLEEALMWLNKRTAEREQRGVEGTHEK

SPO1 Tad2 = SPO1 Tad2 (Bacillus phage SP01, UniProt B6V311); type: binding, Bacillus cereus phage SPO1; details: HPLC; 40 μM protein, 4 μM ligand
Chain of SPO1 Tad2 (B6V311 whole entry, looked up): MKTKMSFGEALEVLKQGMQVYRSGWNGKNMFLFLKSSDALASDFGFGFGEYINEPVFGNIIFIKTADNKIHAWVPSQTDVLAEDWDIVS

HgmTad2 [3] = type: binding, Bacteroides phages (human gut metagenomic libraries); details: HPLC; HgmTad2 of State 1; 40 μM protein, 4 μM ligand
SBS Tad1 [4] = molecular target: T1, SBS Tad1; assay: biochemical; type: binding, Bacillus cereus phage SBSphiJ7
[5] = native PAGE, HgmTad2 of State 1

Chain of CmTad1 (P0DW61 whole entry): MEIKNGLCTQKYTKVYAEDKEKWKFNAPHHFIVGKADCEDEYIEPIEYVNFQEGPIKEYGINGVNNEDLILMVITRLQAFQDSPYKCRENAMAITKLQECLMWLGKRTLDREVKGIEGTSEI

With `Nc1ncnc2c1ncn2[C@@H]1O[C@@H]2COP(=O)(O)OP(=O)(O)OC[C@H]3OC(O[C@@H]1[C@@H]2O)[C@H](O)[C@@H]3O` [1''-2' gcADPR] the “native gel shift of HgmTad2 upon adding ligand” value (HgmTad2 [1]; native gel, purified HgmTad2 in all the three states) was “shift”.
`Nc1nc2c(ncn2[C@@H]2O[C@@H]3COP(=O)(O)O[C@H]4[C@@H](O)[C@H](n5cnc6c(N)ncnc65)O[C@@H]4COP(=O)(O)O[C@H]4[C@@H](O)[C@H](n5cnc6c(N)ncnc65)O[C@@H]4COP(=O)(O)O[C@H]3[C@H]2O)c(=O)[nH]1` [cAAG] was tested, and the “native gel shift of CmTad1 upon adding ligand” value (CmTad1; native PAGE, protein 20 μM) was “shift”.
`Nc1nc2c(ncn2[C@@H]2O[C@@H]3COP(=O)(O)O[C@H]4[C@@H](O)[C@H](n5cnc6c(N)ncnc65)O[C@@H]4COP(=O)(O)O[C@@H]2[C@@H]3O)c(=O)[nH]1` [2',3'-cGAMP] was tested, and the “binding affinity to ColiTad1 in words” value (ColiTad1) was “high affinity”.
In the case of `Nc1nc2c(ncn2[C@@H]2O[C@@H]3COP(=O)(O)O[C@H]4[C@@H](O)[C@H](n5cnc6c(=O)[nH]c(N)nc65)O[C@@H]4COP(=O)(O)O[C@H]3[C@H]2O)c(=O)[nH]1` [cGG, 3’,3’-cyclic di-GMP], the “native gel shift of HgmTad2 upon adding ligand” value (HgmTad2 [1]; [5]) is reported as “significant shift”.
For `Nc1nc2c(ncn2[C@@H]2O[C@@H]3COP(=O)(O)O[C@@H]4[C@H](O)[C@@H](COP(=O)(O)O[C@H]3[C@H]2O)O[C@H]4n2cnc3c(N)ncnc32)c(=O)[nH]1` [3',2'-cGAMP], the “binding affinity to SBS Tad1 in words” value (SBS Tad1 [2]) was “low affinity” and the “binding affinity to ColiTad1 in words” value (ColiTad1) was “low affinity”.
With `Nc1nc2c(ncn2[C@@H]2O[C@@H]3COP(=O)(O)O[C@H]4[C@@H](O)[C@H](n5ccc(=O)[nH]c5=O)O[C@@H]4COP(=O)(O)O[C@H]3[C@H]2O)c(=O)[nH]1` [cUG] the “native gel shift of HgmTad2 upon adding ligand” value (HgmTad2 [1]; [5]) was “significant shift”.
With `Nc1nc2c(ncn2[C@@H]2O[C@@H]3COP(=O)(O)O[C@H]4[C@@H](O)[C@H](n5cnc6c(N)ncnc65)O[C@@H]4COP(=O)(O)O[C@H]3[C@H]2O)c(=O)[nH]1` [3',3'-cGAMP] the “depletion of ligand after incubation with SPO1 Tad2” value (SPO1 Tad2) was “does not deplete”, the “depletion of ligand after incubation with HgmTad2” value (HgmTad2 [3]) was “depletes” and the “native gel shift of HgmTad2 upon adding ligand” value (HgmTad2 [1]; [5]) was “significant shift”. The “binding to CmTad1 in words” value (CmTad1) was “weak binding”, the “binding affinity to ColiTad1 in words” value (ColiTad1) was “low affinity” and the Kd (SBS Tad1 [4]) was 48.7 nM.
For `Nc1ncnc2c1ncn2[C@@H]1O[C@@H]2COP(=O)(O)O[C@H]3[C@@H](O)[C@H](n4ccc(=O)[nH]c4=O)O[C@@H]3COP(=O)(O)O[C@H]2[C@H]1O` [cUA], the “binding to CmTad1 in words” value (CmTad1) was “weak binding” and the Kd (SBS Tad1 [4]) was 53.9 nM.
